Source: patent publication US4923857A, “3-Alkenyl-1-azabicyclo(3.2.0)hept-2-ene-2-carboxylic acid compounds” (Fujisawa Pharmaceutical Company, Ltd., priority 1988, dated 1990)

Test system: S. aureus 209P JC-1
Assay: in vitro Antimicrobial Activity, two-fold agar-plate dilution method (MIC)
Type: cell-based
Details: Staphylococcus aureus, HI-agar, 37° C., 20 hours, 10^6 viable cells per ml, read-out: MIC (minimal inhibitory concentration)
Protocol: in vitro Antimicrobial Activity was determined by the two-fold agar-plate dilution method as described below.
One loopful of an overnight culture of a test strain in Trypticase-soy broth (10^6 viable cells per ml) was streaked on heart infusion agar (HI-agar) containing graded concentrations of the test compound, and the minimal inhibitory concentration (MIC) was expressed in terms of […] after incubation at 37° C. for 20 hours.

MIC: ≤ 0.025 µg/mL
Compound: C/C(=C\[C@@H]1CCCN1)C1=C(C(=O)O)N2C(=O)[C@H]([C@@H](C)O)[C@H]2C1 [Example 4-(1), (5R,6S)-6-[(1R)-1-hydroxyethyl]-7-oxo-3-[(E)-2-{(2S)-pyrrolidin-2-yl}-1-methylethenyl]-1-azabicyclo [3.2.0]hept-2-ene-2-carboxylic acid]
